# Assay results as given in ChEMBL document CHEMBL1121451, “Neuroleptic activity in 5-aryltetrahydro-gamma-carbolines” (J Med Chem, 1980).
# Columns and labels:
# Rattus norvegicus [1] = experiment: Tested for neuroleptic activity by measuring antagonism of d-amphetamine sulfate at intraperitoneal dosage of 5 mg/kg, after 1 hour in rat; Range is 10-32; assay type: functional; settings: ip
# Rattus norvegicus [2] = experiment: Tested for neuroleptic activity by measuring antagonism of d-amphetamine sulfate at intraperitoneal dosage of 5 mg/kg, after 5 hours in rat; assay type: functional; settings: ip
# Rattus norvegicus [3] = experiment: Tested for neuroleptic activity by measuring antagonism of d-amphetamine sulfate at intraperitoneal dosage of 5 mg/kg, after 1 hour in rat; Range is 3.2-10; assay type: functional; settings: ip
# Rattus norvegicus [4] = experiment: Tested for neuroleptic activity by measuring antagonism of d-amphetamine sulfate at intraperitoneal dosage of 5 mg/kg, after 1 hour in rat; Range is 1.0-3.2; assay type: functional; settings: ip
# Rattus norvegicus [5] = experiment: Tested for neuroleptic activity by measuring antagonism of d-amphetamine sulfate at intraperitoneal dosage of 5 mg/kg, after 24 hours in rat; assay type: functional; settings: ip
# Rattus norvegicus [6] = experiment: Tested for neuroleptic activity by measuring antagonism of d-amphetamine sulfate at intraperitoneal dosage of 5 mg/kg, after 5 hours in rat; Range is 3.2-10; assay type: functional; settings: ip
# Rattus norvegicus [7] = experiment: Tested for neuroleptic activity by measuring antagonism of d-amphetamine sulfate at intraperitoneal dosage of 5 mg/kg, after 5 hours in rat; Range is 1.0-3.2; assay type: functional; settings: ip
# Canis familiaris = experiment: The ability of compound to prevent the emesis induced by apomorphine (0.1 mg/kg, iv) in dogs at the specified dosage of 3.2 mg/kg (sesame oil); assay type: functional, Canis lupus familiaris
# Rattus norvegicus [8] = species: Rattus norvegicus; experiment: Inhibition of amphetamine induced stereotypy in rats; pretreated 1 hr before amphetamine.; assay type: functional
# Rattus norvegicus [9] = experiment: Tested for neuroleptic activity by measuring antagonism of d-amphetamine sulfate at intraperitoneal dosage of 5 mg/kg, after 5 hours in rat; Range is 0.32-1.0; assay type: functional; settings: ip
# Rattus norvegicus [10] = experiment: Tested for neuroleptic activity by measuring antagonism of d-amphetamine sulfate at intraperitoneal dosage of 5 mg/kg, after 1 hour in rat; Range is 0.32-1.0; assay type: functional; settings: ip
# Rattus norvegicus [11] = experiment: Tested for neuroleptic activity by measuring antagonism of d-amphetamine sulfate at intraperitoneal dosage of 5 mg/kg, after 5 hours in rat; Range is 10-32; assay type: functional; settings: ip
# Rattus norvegicus [12] = experiment: Tested for neuroleptic activity by measuring antagonism of d-amphetamine sulfate at intraperitoneal dosage of 5 mg/kg, after 1 hour in rat; Range is 0.1-0.32; assay type: functional; settings: ip
# Rattus norvegicus [13] = experiment: Tested for neuroleptic activity by measuring antagonism of d-amphetamine sulfate at intraperitoneal dosage of 5 mg/kg, after 1 hour in rat; Range is 32-56; assay type: functional; settings: ip
compound,measurement,setting,value
OC(CCCN1CCc2c(c3cc(F)ccc3n2-c2ccc(F)cc2)C1)c1cccs1 (stereo unspecified),ED50,Rattus norvegicus [1],10 mg/kg
same,ED50,Rattus norvegicus [2],> 32 mg/kg
CN1CCc2c(c3cc(Br)ccc3n2-c2ccccc2)C1.Cl,ED50,Rattus norvegicus [3],3.2 mg/kg
CN1CCc2c(c3cc(F)ccc3n2-c2ccc(F)cc2)C1.Cl,ED50,Rattus norvegicus [4],1 mg/kg
same,ED50,Rattus norvegicus [5],> 10 mg/kg
same,ED50,Rattus norvegicus [6],3.2 mg/kg
Cl.OC(CCCCN1CCc2c(c3cc(F)ccc3n2-c2ccc(F)cc2)C1)c1ccc(F)cc1 (stereo unspecified),ED50,Rattus norvegicus [4],1 mg/kg
same,ED50,Rattus norvegicus [5],> 3.2 mg/kg
same,ED50,Rattus norvegicus [7],1 mg/kg
CC(=O)OC(CCCN1CCc2c(c3cc(F)ccc3n2-c2ccc(F)cc2)C1)c1ccc(F)cc1 (stereo unspecified),Protection,Canis familiaris,0 days
CCCN1CCc2c(c3cc(F)ccc3n2-c2ccc(F)cc2)C1.Cl,ED50,Rattus norvegicus [3],3.2 mg/kg
same,ED50,Rattus norvegicus [2],> 10 mg/kg
Cl.O=C(CCCN1CCc2c(c3cc(F)ccc3n2-c2ccc(F)cc2)C1)c1ccc(Cl)cc1,ED50,Rattus norvegicus [3],3.2 mg/kg
same,ED50,Rattus norvegicus [6],3.2 mg/kg
Cl.O=C(CCCCN1CCc2c(c3cc(F)ccc3n2-c2ccc(F)cc2)C1)c1ccc(F)cc1,ED50,Rattus norvegicus [8],> 32 mg/kg
same,ED50,Rattus norvegicus [5],> 32 mg/kg
same,ED50,Rattus norvegicus [2],> 32 mg/kg
CN1CCc2c(c3cc(Cl)ccc3n2-c2ccc(F)cc2)C1.Cl,ED50,Rattus norvegicus [4],1 mg/kg
same,ED50,Rattus norvegicus [5],> 10 mg/kg
same,ED50,Rattus norvegicus [6],3.2 mg/kg
COc1ccc(-n2c3c(c4cc(F)ccc42)CN(CCCC(O)c2ccc(F)cc2)CC3)cc1.Cl (stereo unspecified),ED50,Rattus norvegicus [8],1 mg/kg
same,ED50,Rattus norvegicus [5],> 3.2 mg/kg
same,ED50,Rattus norvegicus [2],3.2 mg/kg
Cl.OC(CCCN1CCc2c(c3cc(F)ccc3n2-c2ccc(F)cc2)C1)c1ccccc1 (stereo unspecified),ED50,Rattus norvegicus [9],0.32 mg/kg
same,ED50,Rattus norvegicus [5],> 3.2 mg/kg
same,ED50,Rattus norvegicus [10],0.32 mg/kg
CN1CCc2c(c3cc(F)ccc3n2-c2ccccc2)C1.Cl,ED50,Rattus norvegicus [11],10 mg/kg
same,ED50,Rattus norvegicus [5],> 32 mg/kg
same,ED50,Rattus norvegicus [3],3.2 mg/kg
Cl.O=C(CCCN1CCc2c(c3cc(F)ccc3n2-c2ccc(C(F)(F)F)cc2)C1)c1ccc(F)cc1,ED50,Rattus norvegicus [8],> 32 mg/kg
CN1CCc2c(c3cc(Cl)ccc3n2-c2ccccc2)C1.Cl,ED50,Rattus norvegicus [11],10 mg/kg
same,ED50,Rattus norvegicus [5],> 32 mg/kg
same,ED50,Rattus norvegicus [3],3.2 mg/kg
Cl.Cl.OC(CCCN1CCc2c(c3cc(F)ccc3n2-c2ccc(F)cc2)C1)c1cccnc1 (stereo unspecified),ED50,Rattus norvegicus [8],> 3.2 mg/kg
same,ED50,Rattus norvegicus [2],> 3.2 mg/kg
Cl.O=C(CCCN1CCc2c(c3cc(F)ccc3n2-c2ccc(F)cc2)C1)c1cccs1,ED50,Rattus norvegicus [1],10 mg/kg
same,ED50,Rattus norvegicus [2],> 32 mg/kg
Cl.OC(CCCN1CCc2c(c3cc(F)ccc3n2-c2ccc(F)cc2)C1)c1ccc(Cl)cc1 (stereo unspecified),ED50,Rattus norvegicus [4],1 mg/kg
same,ED50,Rattus norvegicus [5],> 3.2 mg/kg
same,ED50,Rattus norvegicus [7],1 mg/kg
COc1ccc(-n2c3c(c4cc(F)ccc42)CN(CCCC(=O)c2ccc(F)cc2)CC3)cc1.Cl,ED50,Rattus norvegicus [1],10 mg/kg
same,ED50,Rattus norvegicus [2],> 32 mg/kg
Cc1ccc(C(=O)CCCN2CCc3c(c4cc(F)ccc4n3-c3ccc(F)cc3)C2)cc1,ED50,Rattus norvegicus [8],> 10 mg/kg
same,ED50,Rattus norvegicus [2],> 10 mg/kg
Cl.OC(CCCN1CCc2c(c3cc(F)ccc3n2-c2ccc(F)cc2)C1)c1ccccc1F (stereo unspecified),ED50,Rattus norvegicus [12],0.1 mg/kg
same,ED50,Rattus norvegicus [5],> 3.2 mg/kg
same,ED50,Rattus norvegicus [7],1 mg/kg
CN1CCc2c(c3ccccc3n2-c2ccccc2)C1.Cl,ED50,Rattus norvegicus [5],> 32 mg/kg
same,ED50,Rattus norvegicus [1],10 mg/kg
Cl.OC(CCCN1CCc2c(c3cc(F)ccc3n2-c2ccc(F)cc2)C1)c1ccc(Cl)c(C(F)(F)F)c1 (stereo unspecified),ED50,Rattus norvegicus [8],> 32 mg/kg
same,ED50,Rattus norvegicus [5],> 32 mg/kg
same,ED50,Rattus norvegicus [2],> 32 mg/kg
O=C(CCCN1CCc2[nH]c3ccc(F)cc3c2C1)c1ccc(F)cc1,ED50,Rattus norvegicus [4],1 mg/kg
same,ED50,Rattus norvegicus [5],> 32 mg/kg
same,ED50,Rattus norvegicus [6],3.2 mg/kg
Cn1c2c(c3cc(F)ccc31)CN(CCCC(O)c1ccc(F)cc1)CC2 (stereo unspecified),ED50,Rattus norvegicus [11],10 mg/kg
same,ED50,Rattus norvegicus [5],> 32 mg/kg
same,ED50,Rattus norvegicus [1],10 mg/kg
CCN1CCc2c(c3cc(F)ccc3n2-c2ccc(F)cc2)C1.Cl,ED50,Rattus norvegicus [5],> 10 mg/kg
same,ED50,Rattus norvegicus [3],3.2 mg/kg
same,ED50,Rattus norvegicus [2],> 10 mg/kg
CC(C)(C)CCN1CCc2c(c3cc(F)ccc3n2-c2ccc(F)cc2)C1.Cl,ED50,Rattus norvegicus [8],> 10 mg/kg
same,ED50,Rattus norvegicus [5],> 10 mg/kg
same,ED50,Rattus norvegicus [2],> 10 mg/kg
CCOC(=O)N1CCc2c(c3cc(F)ccc3n2-c2ccc(F)cc2)C1,ED50,Rattus norvegicus [8],> 32 mg/kg
same,ED50,Rattus norvegicus [5],> 32 mg/kg
same,ED50,Rattus norvegicus [2],> 32 mg/kg
OC(CCN1CCc2c(c3cc(F)ccc3n2-c2ccc(F)cc2)C1)c1ccc(F)cc1 (stereo unspecified),ED50,Rattus norvegicus [5],> 10 mg/kg
same,ED50,Rattus norvegicus [3],3.2 mg/kg
same,ED50,Rattus norvegicus [2],> 10 mg/kg
CN1CCc2[nH]c3ccc(Cl)cc3c2C1,ED50,Rattus norvegicus [13],32 mg/kg
Cl.OC(CCCN1CCc2c(c3cc(F)ccc3n2-c2cccc(C(F)(F)F)c2)C1)c1ccc(F)cc1 (stereo unspecified),ED50,Rattus norvegicus [8],> 32 mg/kg
same,ED50,Rattus norvegicus [2],> 32 mg/kg
CN1CCN(CC/C=C2/c3ccccc3Sc3ccc(S(=O)(=O)N(C)C)cc32)CC1 [THIOTHIXENE],ED50,Rattus norvegicus [9],0.32 mg/kg
same,ED50,Rattus norvegicus [5],> 17.8 mg/kg
same,ED50,Rattus norvegicus [10],0.32 mg/kg
Cc1ccc2c(c1)c1c(n2-c2ccccc2)CCN(C)C1,ED50,Rattus norvegicus [5],> 32 mg/kg
same,ED50,Rattus norvegicus [1],10 mg/kg
same,ED50,Rattus norvegicus [2],> 32 mg/kg
OC(CCCN1CCc2[nH]c3ccc(F)cc3c2C1)c1ccc(F)cc1 (stereo unspecified),ED50,Rattus norvegicus [5],> 10 mg/kg
same,ED50,Rattus norvegicus [3],3.2 mg/kg
same,ED50,Rattus norvegicus [2],> 10 mg/kg
Cl.O=C(CCCN1CCc2c(c3cc(F)ccc3n2-c2cccc(C(F)(F)F)c2)C1)c1ccc(F)cc1,ED50,Rattus norvegicus [8],> 32 mg/kg
CN1CCc2c(c3cc(Cl)ccc3n2C)C1.Cl,ED50,Rattus norvegicus [13],32 mg/kg
COc1ccc2c(c1)c1c(n2-c2ccccc2)CCN(C)C1.Cl,ED50,Rattus norvegicus [8],> 32 mg/kg
same,ED50,Rattus norvegicus [2],> 32 mg/kg
Cl.Fc1ccc(C(CCCN2CCc3c(c4cc(F)ccc4n3-c3ccc(F)cc3)C2)c2ccc(F)cc2)cc1,ED50,Rattus norvegicus [8],> 32 mg/kg
same,ED50,Rattus norvegicus [5],> 32 mg/kg
same,ED50,Rattus norvegicus [2],> 32 mg/kg
Cl.Fc1ccc(/C=C/CCN2CCc3c(c4cc(F)ccc4n3-c3ccc(F)cc3)C2)cc1,ED50,Rattus norvegicus [5],> 3.2 mg/kg
same,ED50,Rattus norvegicus [3],3.2 mg/kg
same,ED50,Rattus norvegicus [7],1 mg/kg
COc1ccc2c(c1)c1c(n2-c2ccc(F)cc2)CCN(C)C1.Cl,ED50,Rattus norvegicus [8],> 32 mg/kg
same,ED50,Rattus norvegicus [2],> 32 mg/kg
Cl.OC(CCCN1CCc2c(c3cc(F)ccc3n2-c2ccc(C(F)(F)F)cc2)C1)c1ccc(F)cc1 (stereo unspecified),ED50,Rattus norvegicus [11],10 mg/kg
same,ED50,Rattus norvegicus [1],10 mg/kg
CCCCCCCCCCCCCCCCCC(=O)OC(CCCN1CCc2c(c3cc(F)ccc3n2-c2ccc(F)cc2)C1)c1ccc(F)cc1 (stereo unspecified),Protection,Canis familiaris,0 days
Cc1ccc(C(O)CCCN2CCc3c(c4cc(F)ccc4n3-c3ccc(F)cc3)C2)cc1.Cl (stereo unspecified),ED50,Rattus norvegicus [12],0.1 mg/kg
same,ED50,Rattus norvegicus [5],> 10 mg/kg
same,ED50,Rattus norvegicus [7],1 mg/kg
Fc1ccc(C(=CCCN2CCc3c(c4cc(F)ccc4n3-c3ccc(F)cc3)C2)c2ccc(F)cc2)cc1,ED50,Rattus norvegicus [8],> 32 mg/kg
same,ED50,Rattus norvegicus [5],> 32 mg/kg
same,ED50,Rattus norvegicus [2],> 32 mg/kg
Cl.OC(CCCN1CCc2c(c3cc(F)ccc3n2-c2ccccc2F)C1)c1ccc(F)cc1 (stereo unspecified),ED50,Rattus norvegicus [5],> 10 mg/kg
same,ED50,Rattus norvegicus [10],0.32 mg/kg
same,ED50,Rattus norvegicus [7],1 mg/kg
Cl.OC(CCCN1CCc2c(c3cc(F)ccc3n2-c2ccc(F)cc2)C1)c1cccc(C(F)(F)F)c1 (stereo unspecified),ED50,Rattus norvegicus [8],> 10 mg/kg
same,ED50,Rattus norvegicus [2],> 10 mg/kg
Cl.Fc1ccc(-n2c3c(c4cc(F)ccc42)CN(Cc2ccccc2)CC3)cc1,ED50,Rattus norvegicus [5],> 10 mg/kg
same,ED50,Rattus norvegicus [3],3.2 mg/kg
same,ED50,Rattus norvegicus [2],> 10 mg/kg
Cl.Fc1ccc(-n2c3c(c4cc(F)ccc42)CN(CCc2ccccc2)CC3)cc1,ED50,Rattus norvegicus [1],10 mg/kg
same,ED50,Rattus norvegicus [2],> 32 mg/kg
COc1ccc(C(O)CCCN2CCc3c(c4cc(F)ccc4n3-c3ccc(F)cc3)C2)cc1.Cl (stereo unspecified),ED50,Rattus norvegicus [4],1 mg/kg
same,ED50,Rattus norvegicus [5],> 3.2 mg/kg
same,ED50,Rattus norvegicus [7],1 mg/kg
Cl.O=C(CCCN1CCc2c(c3cc(F)ccc3n2-c2ccc(F)cc2)C1)c1ccccc1,ED50,Rattus norvegicus [11],10 mg/kg
same,ED50,Rattus norvegicus [1],10 mg/kg
Cn1c2c(c3cc(F)ccc31)CN(CCCC(=O)c1ccc(F)cc1)CC2,ED50,Rattus norvegicus [1],10 mg/kg
same,ED50,Rattus norvegicus [2],> 32 mg/kg
Cl.O=C(CCCN1CCc2c(c3cc(F)ccc3n2-c2ccc(F)cc2)C1)c1cccc(F)c1,ED50,Rattus norvegicus [11],10 mg/kg
same,ED50,Rattus norvegicus [5],> 32 mg/kg
same,ED50,Rattus norvegicus [1],10 mg/kg
Fc1ccc(-n2c3c(c4cc(F)ccc42)CNCC3)cc1,ED50,Rattus norvegicus [1],10 mg/kg
Cl.OC(CCCN1CCc2c(c3cc(F)ccc3n2-c2cccc(F)c2)C1)c1ccc(F)cc1 (stereo unspecified),ED50,Rattus norvegicus [3],3.2 mg/kg
same,ED50,Rattus norvegicus [2],> 10 mg/kg
